The source made the active and inactive calls. The calls are words filed in the database; no cut-off is given here.
Tests used:
[1] = species on record: Rattus norvegicus; assay: Enhancement of norepinephrine-induced lipolysis in Wistar rat fat cells assessed as free fatty acid release per mL of packed fat cells after 1 hr relative to norepinephrine; type: functional, cell-based
[2] = species on record: Rattus norvegicus; assay: Induction of lipolysis in Wistar rat fat cells assessed as free fatty acid release per mL of packed fat cells after 1 hr relative to norepinephrine; type: functional, cell-based
[3] = species on record: Rattus norvegicus; assay: Enhancement of norepinephrine-induced lipolysis in cell-free system consisting endogenous lipid droplets from Wistar rat fat cells assessed as free fatty acid release per mL of packed fat cells after 1 hr in presence of hormone-sensitive lipase; type: functional
[4] = Effect on lipolysis in cell-free system consisting sonicated lipid droplets assessed as free fatty acid release at 1000 ug in presence of hormone-sensitive lipase relative to untreated control; type: physicochemical
[5] = Enhancement of norepinephrine-induced lipolysis in cell-free system consisting sonicated lipid droplets assessed as free fatty acid release at 1000 ug in presence of hormone-sensitive lipase relative to untreated control; type: physicochemical
[6] = Stimulation of ACTH-induced lipolysis in Wistar rat fat cells assessed as free fatty acid release per mL of packed fat cells at 100 ug after 1 hr relative to ACTH; type: functional
[7] = Stimulation of ACTH-induced lipolysis in Wistar rat fat cells assessed as free fatty acid release per mL of packed fat cells at 1000 ug after 1 hr relative to ACTH; type: functional
[8] = species on record: Rattus norvegicus; assay: Inhibition of insulin-induced lipogenesis from [U-14C]glucose in Wistar rat fat cells after 1 hr by liquid scintillation counting; type: functional, cell-based

Activity [4]	Activity [5]	Compound	Activity [1]	Activity [2]	Activity [3]	Activity [6]	Activity [7]	Activity [8]
98.6%	96.2%	COc1c(O)cc2c(c1O)[C@@H]1O[C@H](CO)[C@@H](O)[C@H](O)[C@H]1OC2=O [BERGENIN]	Active	inactive	Active	105.9%	356.9%	Active
98.5%	100%	C[C@@H]1O[C@@H](Oc2coc3cc(O)cc(O)c3c2=O)[C@H](O)[C@H](O)[C@H]1O [EUCRYPHIN]	Active	inactive	Active	79.4%	332.8%	Active
95.7%	98.5%	C[C@@H]1O[C@@H](O[C@H]2C(=O)c3c(O)cc(O)cc3O[C@@H]2c2ccc(O)c(O)c2)[C@H](O)[C@H](O)[C@H]1O [ASTILBIN]	Active	inactive	Active	195.6%	278.4%	Active

From ChEMBL document CHEMBL1150932, “Norepinephrine-augmenting lipolytic effectors from Astilbe thunbergii rhizomes” (J Nat Prod, 1998)
